Source: US4528289A, “Corynantheine derivates, processes for their preparation, and their use” (Dr. Willmar Schwabe GmbH & Co., priority 1982, dated 1985)
Counter-ions that a name gives are not always drawn.

Assay: hygroscopicity of crystals
Type: physicochemical
Conditions: crystals dried at 110° C. for 8 hours at oil pump vacuum
Procedure: For analysis, the product is again recrystallised from methanol by the addition of diethyl ether. […] 187° C. (decomp. from 158° C., subl. of the base); [α]D^20 =-26° (c=2 in methanol).

CC[C@H]1CN2CCc3c([nH]c4ccccc34)[C@@H]2C[C@@H]1C(COC)C(=O)OC (stereo partly shown) [Example 9, tetrahydrocorynantheine hydrochloride]
hygroscopicity (in words): slightly hygroscopic
